Reference: PubChem BioAssay AID2060328 (Molecular Pharmacology Branch, DTP, NCI, 2025)
“And” between values parts separate entries of the source, which are not always exact repeats. Identical values can stand only once.

System: MDA-MB-231 multicell spheroids, viability (%T/C)
Assay: Anticancer human tumor MDA-MB-231 cell line growth inhibition [IpAb];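 note: viability read after seven days of drug exposure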;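 for viability, T/C: 100% = DMSO vehicle control viability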
Conditions: for viability, T/C: stronger effect = lower value
Procedure, shortened: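 Spheroids of 60% malignant cells, 25% HUVEC and 15% MSC were exposed to targeted agents combined with ipatasertib or abemaciclib. Doses started at or near clinical Cmax (10 microM when unknown) and fell in half-log steps.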

[1] = curve of first compound, second compound 0.1 µM
[2] = curve of first compound, second compound 0.316 µM
[3] = curve of first compound, second compound 1 µM
[4] = second compound 0.1 µM, first compound 0.0316 µM
[5] = second compound 0.1 µM, first compound 0.1 µM
[6] = second compound 0.316 µM, first compound 0.0316 µM
[7] = second compound 0.316 µM, first compound 0.1 µM
[8] = second compound 1 µM, first compound 0.0316 µM
[9] = second compound 1 µM, first compound 0.1 µM

Which results are given for `Cn1nccc1Nc1nccc(-c2ccn(C(CO)c3ccc(Cl)c(F)c3)c(=O)c2)n1` (stereo unspecified)?
viability, T/C (compound 0.0316 µM): 71% and 65.7%; viability, T/C (compound 0.1 µM): 59% and 53.1%; viability, T/C (compound 0.316 µM): 49.6% and 47.1%; viability, T/C (compound 1 µM): 48% and 38%; viability, T/C (compound 3.16 µM): 30.3% and 33.5%; viability, T/C (compound 10 µM): 23.5% and 21.3%; IC50 (curve of compound): 406 nM and 209 nM

`CCCS(=O)(=O)Nc1ccc(F)c(C(=O)c2c[nH]c3ncc(-c4ccc(Cl)cc4)cc23)c1F` was tested. Which viability, T/C (compound 0.0316 µM) did it give?
The viability, T/C was 112% and 109%.

What about the viability, T/C (compound 0.1 µM) of the same compound?
Its viability, T/C is 111% and 109%.

And the viability, T/C (compound 0.316 µM)?
The viability, T/C was 106% and 112%.

What about the viability, T/C (compound 1 µM) of the same compound?
Its viability, T/C is 100% and 104%.

And the viability, T/C (compound 3.16 µM)?
Its viability, T/C is 80.9% and 79.1%.

And the viability, T/C (compound 10 µM)?
Its viability, T/C is 46.6% and 41.1%.

What about the IC50 (curve of compound) of the same compound?
Its IC50 is 9000 nM and 7630 nM.

Which results are given for `Cn1ncc(Cl)c1-c1cc(C(=O)NC(CN)Cc2cccc(F)c2)sc1Cl` (stereo unspecified) + CC(C)NCC(C(=O)N1CCN(c2ncnc3c2C(C)CC3O)CC1)c1ccc(Cl)cc1?
IC50 [1]: 1590 nM; IC50 [2]: 1270 nM; IC50 [3]: 1100 nM; IC50 (curve of first compound, second compound 3.16 µM): 471 nM; IC50 (curve of first compound, second compound 10 µM): < 31.6 nM; viability, T/C [4]: 99.1%; viability, T/C [5]: 88%; viability, T/C (second compound 0.1 µM, first compound 0.316 µM): 80.3%; viability, T/C (second compound 0.1 µM, first compound 1 µM): 61.8%; viability, T/C (second compound 0.1 µM, first compound 3.16 µM): 33%; viability, T/C (second compound 0.1 µM, first compound 10 µM): 0.11%; viability, T/C [6]: 70.7%; viability, T/C [7]: 79.4%; viability, T/C (second compound 0.316 µM, first compound 0.316 µM): 71.2%; viability, T/C (second compound 0.316 µM, first compound 1 µM): 49%; viability, T/C (second compound 0.316 µM, first compound 3.16 µM): 34.3%; viability, T/C (second compound 0.316 µM, first compound 10 µM): 0.12%; viability, T/C [8]: 74.1%; viability, T/C [9]: 71.9%; viability, T/C (second compound 1 µM, first compound 0.316 µM): 63.1%; viability, T/C (second compound 1 µM, first compound 1 µM): 50.6%; viability, T/C (second compound 1 µM, first compound 3.16 µM): 32.8%; viability, T/C (second compound 1 µM, first compound 10 µM): 0.11%; viability, T/C (second compound 3.16 µM, first compound 0.0316 µM): 57.3%; viability, T/C (second compound 3.16 µM, first compound 0.1 µM): 59.1%; viability, T/C (second compound 3.16 µM, first compound 0.316 µM): 49.7%; viability, T/C (second compound 3.16 µM, first compound 1 µM): 43%; viability, T/C (second compound 3.16 µM, first compound 3.16 µM): 33.6%; viability, T/C (second compound 3.16 µM, first compound 10 µM): 0.34%; viability, T/C (second compound 10 µM, first compound 0.0316 µM): 42.2%; viability, T/C (second compound 10 µM, first compound 0.1 µM): 41.1%; viability, T/C (second compound 10 µM, first compound 0.316 µM): 37.5%; viability, T/C (second compound 10 µM, first compound 1 µM): 37.5%; viability, T/C (second compound 10 µM, first compound 3.16 µM): 26.1%; viability, T/C (second compound 10 µM, first compound 10 µM): 0.49%

How did the viability, T/C (compound 0.00949 µM) turn out when `Cn1cnc2c(F)c(Nc3ccc(Br)cc3Cl)c(C(=O)NOCCO)cc21` was run?
The viability, T/C was 75.6% and 63.3%.

What about the viability, T/C (compound 0.03 µM) of the same compound?
The viability, T/C was 59.9% and 54.4%.

And the viability, T/C (compound 0.0949 µM)?
Its viability, T/C is 54.8% and 50.4%.

And the viability, T/C (compound 0.3 µM)?
The viability, T/C was 52.9% and 41.3%.

What about the viability, T/C (compound 0.949 µM) of the same compound?
The viability, T/C was 27.7% and 30.4%.

What about the viability, T/C (compound 3 µM) of the same compound?
Its viability, T/C is 14.4% and 19.2%.

And the IC50 (curve of compound)?
The IC50 was 186 nM and 72.9 nM.

For `Cn1ncnc1[C@H]1c2n[nH]c(=O)c3cc(F)cc(c23)N[C@@H]1c1ccc(F)cc1` + CCN1CCN(Cc2ccc(Nc3ncc(F)c(-c4cc(F)c5nc(C)n(C(C)C)c5c4)n3)nc2)CC1, which IC50 (curve of first compound, second compound 0.01 µM) is on record?
The IC50 was over 100 nM.

What about the IC50 (curve of first compound, second compound 0.0316 µM) of the same compound?
The IC50 was over 100 nM.

What about the IC50 [1] of the same compound?
Its IC50 is 37.6 nM.

What about the IC50 [2] of the same compound?
The IC50 was under 0.316 nM.

What about the IC50 [3] of the same compound?
Its IC50 is under 0.316 nM.

And the viability, T/C (second compound 0.01 µM, first compound 0.000316 µM)?
The viability, T/C was 86.5%.

And the viability, T/C (second compound 0.01 µM, first compound 0.001 µM)?
Its viability, T/C is 85.5%.

What about the viability, T/C (second compound 0.01 µM, first compound 0.00316 µM) of the same compound?
The viability, T/C was 79.6%.

What about the viability, T/C (second compound 0.01 µM, first compound 0.01 µM) of the same compound?
Its viability, T/C is 70.9%.

And the viability, T/C (second compound 0.01 µM, first compound 0.0316 µM)?
The viability, T/C was 69.2%.

And the viability, T/C (second compound 0.01 µM, first compound 0.1 µM)?
Its viability, T/C is 65.9%.

What about the viability, T/C (second compound 0.0316 µM, first compound 0.000316 µM) of the same compound?
Its viability, T/C is 74.8%.

And the viability, T/C (second compound 0.0316 µM, first compound 0.001 µM)?
The viability, T/C was 72.1%.

And the viability, T/C (second compound 0.0316 µM, first compound 0.00316 µM)?
Its viability, T/C is 65.2%.

And the viability, T/C (second compound 0.0316 µM, first compound 0.01 µM)?
Its viability, T/C is 60%.

And the viability, T/C (second compound 0.0316 µM, first compound 0.0316 µM)?
The viability, T/C was 59.1%.

What about the viability, T/C (second compound 0.0316 µM, first compound 0.1 µM) of the same compound?
The viability, T/C was 55%.

And the viability, T/C (second compound 0.1 µM, first compound 0.000316 µM)?
Its viability, T/C is 58.8%.

What about the viability, T/C (second compound 0.1 µM, first compound 0.001 µM) of the same compound?
Its viability, T/C is 56.4%.

What about the viability, T/C (second compound 0.1 µM, first compound 0.00316 µM) of the same compound?
The viability, T/C was 51.5%.

And the viability, T/C (second compound 0.1 µM, first compound 0.01 µM)?
The viability, T/C was 51.1%.

What about the viability, T/C [4] of the same compound?
Its viability, T/C is 51.5%.

What about the viability, T/C [5] of the same compound?
The viability, T/C was 48.7%.

What about the viability, T/C (second compound 0.316 µM, first compound 0.000316 µM) of the same compound?
The viability, T/C was 46.5%.

What about the viability, T/C (second compound 0.316 µM, first compound 0.001 µM) of the same compound?
The viability, T/C was 46.6%.

And the viability, T/C (second compound 0.316 µM, first compound 0.00316 µM)?
The viability, T/C was 43.9%.

What about the viability, T/C (second compound 0.316 µM, first compound 0.01 µM) of the same compound?
The viability, T/C was 43.3%.

And the viability, T/C [6]?
Its viability, T/C is 42.9%.

And the viability, T/C [7]?
The viability, T/C was 40.4%.

And the viability, T/C (second compound 1 µM, first compound 0.000316 µM)?
The viability, T/C was 48%.

And the viability, T/C (second compound 1 µM, first compound 0.001 µM)?
The viability, T/C was 49.3%.

And the viability, T/C (second compound 1 µM, first compound 0.00316 µM)?
The viability, T/C was 50.2%.

And the viability, T/C (second compound 1 µM, first compound 0.01 µM)?
The viability, T/C was 46.3%.

What about the viability, T/C [8] of the same compound?
Its viability, T/C is 48.5%.

And the viability, T/C [9]?
Its viability, T/C is 46.9%.
